Measurements as given in patent US9133160B2, “Substituted benzimidazole and imidazopyridine compounds useful as CYP17 modulators” (Bristol-Meyers Squibb Company, priority 2010, dated 2015).
pIC50: −log10 of the molar value.

Target: Human CYP17 (Homo sapiens (Human), UniProt P05093)
Assay: CYP17 Total SPA Assay
Assay type: biochemical
Details: microsomes from HEK2 cells stably transfected with CYP17; 3H-Pregnenolone 1 uM, NADPH 2 mM; read-out: Human CYP17 Inhibition SPA IC50
Experimental: CYP17 Total SPA Assay The assays were performed in U-bottom 384-well optiplates. […] The reaction was initiated by the combination of the microsomes and substrates in wells containing compound. The reaction was incubated at room temperature for 45 minutes and terminated by adding 7.5 μl of 0.2N HCl to each well. […] The plate was sealed and incubated overnight with shaking at 4° C. The beads were allowed to settle in the plate for 1 hour and the plate read on a TOPCOUNT® (Perkin-Elmer) plate reader. […] The final concentration of reagents in the assays are NADPH, 2 mM; 3H-Pregnenolone, 1 uM; microsomes, 1.25 ug/ml; […] Dose response curves were generated to determine the concentration required inhibiting 50% of enzyme activity (IC50). Compounds were dissolved at 10 mM in dimethylsulfoxide (DMSO) and evaluated at eleven concentrations, each in duplicate. IC50 values were derived by non-linear regression analysis. Table 3 below lists the IC50 values for the following examples of this invention measured in the Total CYP17 SPA Assay hereinabove.

Sequence of Human CYP17 (P05093 whole entry): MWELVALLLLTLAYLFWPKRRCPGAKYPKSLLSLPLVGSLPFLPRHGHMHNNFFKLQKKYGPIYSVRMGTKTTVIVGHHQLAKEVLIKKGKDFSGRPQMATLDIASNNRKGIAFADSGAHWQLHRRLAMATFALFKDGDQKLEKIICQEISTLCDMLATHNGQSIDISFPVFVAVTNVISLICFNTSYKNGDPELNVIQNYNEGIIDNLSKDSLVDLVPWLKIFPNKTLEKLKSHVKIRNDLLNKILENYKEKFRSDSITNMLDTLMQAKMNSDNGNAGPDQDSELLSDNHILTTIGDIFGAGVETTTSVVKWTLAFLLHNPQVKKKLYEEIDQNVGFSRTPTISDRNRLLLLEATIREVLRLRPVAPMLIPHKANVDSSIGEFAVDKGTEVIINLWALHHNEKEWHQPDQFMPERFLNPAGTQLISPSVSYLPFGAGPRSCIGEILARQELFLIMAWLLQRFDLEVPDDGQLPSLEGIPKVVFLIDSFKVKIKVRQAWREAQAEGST

Row | SMILES | pIC50
1 | Cc1ccncc1-c1cccc2c1ncn2-c1ncc(F)cc1F [Example 15, 1-(3,5-difluoropyridin-2-yl)-4-(4-methylpyridin-3-yl)-1H-benzo[d]imidazole] | 6.12
2 | Cc1ccncc1-c1cccc2c1ncn2-c1ccncn1 [Example 29, 4-(4-methylpyridin-3-yl)-1-(pyrimidin-4-yl)-1H-benzo[d]imidazole] | 6.18
3 | Cc1ccncc1-c1cccc2c1ncn2-c1cnccn1 [Example 4, 4-(4-methylpyridin-3-yl)-1-(pyrazin-2-yl)-1H-benzo[d]imidazole] | 7.43
4 | Cc1ccncc1-c1cccc2c1ncn2-c1cccc(C(F)(F)F)n1 [Example 9, 4-(4-methylpyridin-3-yl)-1-(6-(trifluoromethyl)pyridin-2-yl)-1H-benzo[d]imidazole] | 7.40
5 | Cc1ccncc1-c1cccc2c1ncn2-c1cccc(F)n1 [Example 14, 1-(6-fluoropyridin-2-yl)-4-(4-methylpyridin-3-yl)-1H-benzo[d]imidazole] | 7.96
6 | Cc1ccncc1-c1cccc2c1ncn2-c1cccnn1 [Example 6, 4-(4-methylpyridin-3-yl)-1-(pyridazin-3-yl)-1H-benzo[d]imidazole] | 6.60
7 | Cc1ccncc1-c1cccc2c1ncn2-c1ccccn1 [Example 2, 4-(4-methylpyridin-3-yl)-1-(pyridin-2-yl)-1H-benzo[d]imidazole] | 8.24
8 | Cc1ccncc1-c1cccc2c1ncn2-c1ccncc1 [Example 30, 4-(4-methylpyridin-3-yl)-1-(pyridin-4-yl)-1H-benzo[d]imidazole] | 6.39

Now from value to compound:

Row | pIC50 | SMILES
9 | 6.44 | FC(F)(F)Cn1cnc2c(-c3cnccc3Cl)cccc21 [Example 39, 4-(4-Chloropyridin-3-yl)-1-(2,2,2-trifluoroethyl)-1H-benzo[d]imidazole]
10 | 6.17 | Nc1ncncc1-c1cccc2c1ncn2CC(F)(F)F [Example 44, 5-(1-(2,2,2-Trifluoroethyl)-1H-benzo[d]imidazol-4-yl)pyrimidin-4-amine]
11 | 7.92 | Cc1ccncc1-c1cccc2c1ncn2CC(F)(F)F [Example 31, 4-(4-Methylpyridin-3-yl)-1-(2,2,2-trifluoroethyl)-1H-benzo[d]imidazole]
12 | 6.87 | CCOc1ncncc1-c1cccc2c1ncn2CC(F)(F)F [Example 45, 4-(4-Ethoxypyrimidin-5-yl)-1-(2,2,2-trifluoroethyl)-1H-benzo[d]imidazole]
13 | 6.40 | Cc1ccncc1-c1cccc2c1ncn2C1CC1 [Example 37, 1-Cyclopropyl-4-(4-methylpyridin-3-yl)-1H-benzo[d]imidazole]
14 | 6.48 | Cc1ccncc1-c1cccc2c1ncn2CC#N [Example 35, 2-(4-(4-Methylpyridin-3-yl)-1H-benzo[d]imidazol-1-yl)acetonitrile]
15 | 6.10 | Nc1ncncc1-c1cccc2c1ncn2-c1ccc(F)cc1F [Example 46, 5-(1-(2,4-Difluorophenyl)-1H-benzo[d]imidazol-4-yl)pyrimidin-4-amine]

System: testosterone levels
Assay: 1-Day Cyno PK/PD Study (plasma testosterone)
Assay type: in vivo
Details: cynomolgus monkeys, single oral dose 2 mg/kg in 80% PEG-400/water, 24 hour period
Experimental: Example 31 was formulated in 80% PEG-400/water at a volume of 1 mL/kg of monkey and administered orally at 2 mg/kg. The formulation was then dosed orally at time=0 hours and blood samples were taken over a 24 hour period to monitor for drug exposure and testosterone levels. (♦) Example 31 (nM); (▴) testosterone (ng/dL).
1-Day Cyno PK/PD Study Protocol
Animals: All procedures involving animals and their care were conducted in conformity with the guidelines that are in compliance with the Bristol-Myers Squibb Institutional Animal Care and Use Committee. Fully mature male cynomolgus monkeys (>4 yrs of age; 5-6 kg) were from an in-house colony. All the monkeys used had chronically implanted femoral vein access ports. For oral studies, all animals were fasted overnight prior to dosing and were fed 4 hr after dosing. […]
Sampling: Blood samples were collected from the femoral port, at 15, 30, and 45 min, and 1, 2, 4, 6, 8, 12, 24, 30, and 48 hr after oral administration. […] The plasma fraction was immediately separated by centrifugation (14,000 rpm, 10 min, 4° C.), frozen on dry ice, and stored at −20° C. until the samples were analyzed.
Analysis of Tested Compound: Plasma samples were thawed and treated with two volumes of acetonitrile containing internal standard. After centrifugation to remove precipitated proteins, an aliquot of supernatant was analyzed by LC/MS/MS. […]

Row | SMILES | testosterone levels [ng/dL]
16 | Cc1ccncc1-c1cccc2c1ncn2CC(F)(F)F [Example 31, 4-(4-Methylpyridin-3-yl)-1-(2,2,2-trifluoroethyl)-1H-benzo[d]imidazole] | ~15
